Values quoted from earlier work in patent US20190167675A1, “METHODS AND COMPOSITIONS FOR APPETITE CONTROL AND WEIGHT MANAGEMENT” (SHANGHAI YAO YUAN BIOTECHNOLOGY CO., LTD., priority 2016, published 2019).
Like-named read-outs stand apart in the source and are kept apart here.

Tests used:
ASIC3 [1] = target: T1, ASIC3 (Homo sapiens, UniProt Q9UHC3); conditions: cited from earlier work
T1 sequence (Q9UHC3 1-531): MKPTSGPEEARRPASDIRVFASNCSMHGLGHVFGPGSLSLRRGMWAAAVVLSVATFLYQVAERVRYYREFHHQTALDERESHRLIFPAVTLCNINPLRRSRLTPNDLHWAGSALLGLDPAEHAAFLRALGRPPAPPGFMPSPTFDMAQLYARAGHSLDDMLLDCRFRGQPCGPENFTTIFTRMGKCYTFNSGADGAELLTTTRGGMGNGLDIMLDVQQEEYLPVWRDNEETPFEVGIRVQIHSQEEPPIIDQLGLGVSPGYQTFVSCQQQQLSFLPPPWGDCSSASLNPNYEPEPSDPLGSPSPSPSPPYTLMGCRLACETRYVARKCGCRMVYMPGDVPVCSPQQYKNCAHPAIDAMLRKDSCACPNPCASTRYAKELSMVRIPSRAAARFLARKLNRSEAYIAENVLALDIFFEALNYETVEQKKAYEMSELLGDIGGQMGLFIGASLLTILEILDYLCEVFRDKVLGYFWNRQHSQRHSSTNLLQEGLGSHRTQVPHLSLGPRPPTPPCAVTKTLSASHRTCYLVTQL

ASIC3 [2] = conditions: in vivo; cited from earlier work
ENaC [3] = conditions: pig AEC type II cells; cited from earlier work
ENaC [4] = target: T2, ENaC (Rattus norvegicus, UniProt P37089+P37090+P37091); conditions: rat AEC type II cells; cited from earlier work
T2 construct: amiloride-sensitive Na+ currents (via ENaC) in rat, dog, and pig AEC type II cells; endogenous in cells; host or cells: rat AEC type II cells
T2 sequence (P37089 1-698): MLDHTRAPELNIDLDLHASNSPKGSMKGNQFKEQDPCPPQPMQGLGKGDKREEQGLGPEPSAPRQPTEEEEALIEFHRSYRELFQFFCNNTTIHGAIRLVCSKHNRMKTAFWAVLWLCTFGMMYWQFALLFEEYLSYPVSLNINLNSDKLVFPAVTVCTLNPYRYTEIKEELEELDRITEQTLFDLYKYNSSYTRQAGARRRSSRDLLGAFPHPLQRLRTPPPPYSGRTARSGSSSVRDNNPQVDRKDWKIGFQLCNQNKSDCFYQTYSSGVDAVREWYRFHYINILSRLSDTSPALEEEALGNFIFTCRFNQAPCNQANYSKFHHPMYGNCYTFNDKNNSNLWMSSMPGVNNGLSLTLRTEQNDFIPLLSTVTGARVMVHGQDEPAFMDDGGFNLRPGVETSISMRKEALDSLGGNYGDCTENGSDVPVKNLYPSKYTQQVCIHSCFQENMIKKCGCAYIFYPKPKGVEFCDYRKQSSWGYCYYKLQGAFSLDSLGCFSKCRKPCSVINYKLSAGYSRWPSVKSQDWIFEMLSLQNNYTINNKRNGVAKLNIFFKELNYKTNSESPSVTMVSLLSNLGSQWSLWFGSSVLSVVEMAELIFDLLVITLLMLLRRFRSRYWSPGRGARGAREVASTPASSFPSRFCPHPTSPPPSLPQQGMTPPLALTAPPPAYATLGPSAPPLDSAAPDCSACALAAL
T2 sequence (P37090 1-638): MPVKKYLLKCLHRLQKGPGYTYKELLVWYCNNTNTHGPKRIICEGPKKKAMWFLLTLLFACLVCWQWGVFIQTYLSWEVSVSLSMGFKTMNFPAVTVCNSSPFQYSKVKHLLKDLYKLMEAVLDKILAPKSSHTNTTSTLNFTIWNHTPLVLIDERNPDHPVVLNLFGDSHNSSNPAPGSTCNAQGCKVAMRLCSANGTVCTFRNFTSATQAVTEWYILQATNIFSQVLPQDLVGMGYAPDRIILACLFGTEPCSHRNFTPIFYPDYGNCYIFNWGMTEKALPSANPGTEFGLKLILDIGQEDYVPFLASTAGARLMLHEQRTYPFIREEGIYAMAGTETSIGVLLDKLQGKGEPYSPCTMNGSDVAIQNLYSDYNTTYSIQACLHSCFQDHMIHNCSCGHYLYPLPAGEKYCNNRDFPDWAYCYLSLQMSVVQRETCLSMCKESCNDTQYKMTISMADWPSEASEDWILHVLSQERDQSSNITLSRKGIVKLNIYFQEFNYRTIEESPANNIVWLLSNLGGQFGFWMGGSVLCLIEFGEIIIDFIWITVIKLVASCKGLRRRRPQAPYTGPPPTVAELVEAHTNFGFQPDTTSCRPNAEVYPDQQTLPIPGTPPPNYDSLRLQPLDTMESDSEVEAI
T2 sequence (P37091 1-650): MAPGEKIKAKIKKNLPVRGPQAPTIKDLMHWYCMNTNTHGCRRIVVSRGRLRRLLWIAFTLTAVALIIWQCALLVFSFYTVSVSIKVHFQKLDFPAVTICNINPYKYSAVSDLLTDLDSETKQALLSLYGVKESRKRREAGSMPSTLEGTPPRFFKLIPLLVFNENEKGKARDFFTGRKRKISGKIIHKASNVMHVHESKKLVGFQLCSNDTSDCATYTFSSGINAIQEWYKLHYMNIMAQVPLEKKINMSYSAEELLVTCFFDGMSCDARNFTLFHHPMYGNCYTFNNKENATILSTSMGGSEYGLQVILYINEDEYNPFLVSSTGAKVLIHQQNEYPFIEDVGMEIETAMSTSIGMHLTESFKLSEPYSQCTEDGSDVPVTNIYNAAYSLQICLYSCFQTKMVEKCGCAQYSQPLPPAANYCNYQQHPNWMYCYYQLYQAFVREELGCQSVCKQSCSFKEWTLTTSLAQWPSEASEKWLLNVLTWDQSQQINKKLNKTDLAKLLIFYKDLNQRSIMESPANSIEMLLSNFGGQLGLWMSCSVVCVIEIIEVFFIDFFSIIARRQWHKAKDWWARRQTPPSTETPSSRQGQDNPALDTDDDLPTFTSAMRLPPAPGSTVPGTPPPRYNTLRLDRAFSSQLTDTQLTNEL

ENaC [5] = conditions: dog AEC type II cells; cited from earlier work

Compound | ASIC3 currents (ASIC3 [1]) | pain related behavior (ASIC3 [2]) | increase of amiloride-sensitive Na+ currents versus baseline (ENaC [3]) [fold] | increase of amiloride-sensitive Na+ currents versus baseline (ENaC [4]) | increase of amiloride-sensitive Na+ currents versus baseline (ENaC [5]) [fold]
Cc1nc(NC(=N)N)nc2ccccc12 [GMQ, 2-guanidine-4-methylquinazoline] | induces persistent ASIC3 currents | induces pain related behavior |  |  | 
AP301: ENaC activator; human TNF-α-derived cyclic peptide composed of 17 natural amino acids |  |  | ~16 | about 9 fold | ~13
